Measurements: patent US20230414771A1, “PREPARATION AND USE OF IMMUNOSTIMULATORY CONJUGATED COMPLEXES FOR TARGETED DELIVERY AND ACTIVATION” (YAFEI SHANGHAI BIOLOGY MEDICINE SCIENCE & TECHNOLOGY CO., …, priority 2020, published 2023)
Where a SMILES comes first, the peptide text is derived from it. The star is where a group is joined. Doxorubicin(3'-N) = COc1cccc2c1C(=O)c1c(O)c3c(c(O)c1C2=O)C[C@@](O)(C(=O)CO)C[C@@H]3O[C@H]1C[C@H](N*)[C@H](O)[C@H](C)O1; Hexanoyl(6-maleimido) = O=C1C=CC(=O)N1CCCCCC(=O)*

Legend:
[1] = Water solubility test (observation and HPLC); type: physicochemical; conditions: thermodynamic from solid
Procedure: The compounds prepared in accordance with the examples of the disclosure and the reference compounds C1, C2, C3 and C4 were lyophilized (−70° C.).

[2] = tested on: CT26 tumors orthotopically transplanted in liver; experiment: Orthotopic liver CT26 tumors, EMC-AANL-DOX, lenvatinib and PD-1; type: in vivo, BALB/c mice; conditions: 18 μmol/kg IV once weekly for 3 weeks
Procedure: 5×10^5 CT26 cells were injected subcutaneously into the back of nude mice. Randomization was performed when the tumor size reached 800-1000 mm^3. Tumor tissue was then extracted and cut into 100 mm^3 tumor tissue pieces and transplanted orthotopically into BALB/c mouse livers. After one week, when the orthotopically transplanted tumors grew, the mice with orthotopically transplanted tumors were randomized. • 2) Treatment course: 6 mice in one group were treated with drugs. The day of treatment was Day 1. According to the clinical application of EMC-AANL-DOX, the drug was administered intravenously (IV) once weekly for 3 weeks.

[3] = type: physicochemical
Source text: The freeze-dried products EMC-AANL-DOX, HSA-EMC-AANL-DOX, HSA-QHL-087-DOX and HSA-QHL-087-N-CBP prepared by the embodiment of the disclosure are subpackaged in a sterile room and redissolved by water for injection.

[4] = tested on: Human breast cancer MDA-MB435 tumor tissue homogenate; experiment: Activation in MDA-MB435 tumor tissue homogenate; type: biochemical; conditions: MDA-MB435 homogenate pH 6.0, 37° C., 1 mg/ml
Procedure: (§1) In the experiments of the present disclosure, 1 mg/ml of the sample compound was added to 100 μg of acidified tumor tissue homogenate (pH 6.0) at 37° C. The enzyme in the tumor tissue homogenate can cause the release of doxorubicin, and the reduction of compound and the increase of doxorubicin could be detected by HPLC to compare the activation efficiency of the drug in the tumor tissue.

[5] = tested on: Human ovarian carcinoma SK-OV-3 tumor tissue homogenate; experiment: Activation in SK-OV-3 tumor tissue homogenate; type: biochemical; conditions: SK-OV-3 homogenate pH 6.0, 37° C., 1 mg/ml
Procedure: as §1

[6] = tested on: Human colon cancer HT-29 tumor tissue homogenate; experiment: Activation in HT-29 tumor tissue homogenate; type: biochemical; conditions: HT-29 homogenate pH 6.0, 37° C., 1 mg/ml
Procedure: as §1

[7] = tested on: Human non-small cell lung cancer A549 tumor tissue homogenate; experiment: Activation in A549 tumor tissue homogenate; type: biochemical; conditions: A549 homogenate pH 6.0, 37° C., 1 mg/ml
Procedure: as §1

[8] = tested on: Human prostate cancer PC-3 tumor tissue homogenate; experiment: Activation in PC-3 tumor tissue homogenate; type: biochemical; conditions: PC-3 homogenate pH 6.0, 37° C., 1 mg/ml
Procedure: as §1

[9] = tested on: Human live cancer Hep G2 tumor tissue homogenate; experiment: Activation in Hep G2 tumor tissue homogenate; type: biochemical; conditions: Hep G2 homogenate pH 6.0, 37° C., 1 mg/ml
Procedure: as §1

[10] = tested on: Human renal carcinoma OS-RC-2 tumor tissue homogenate; experiment: Activation in OS-RC-2 tumor tissue homogenate; type: biochemical; conditions: OS-RC-2 homogenate pH 6.0, 37° C., 1 mg/ml
Procedure: as §1

[11] = 0.5 mg/ml, pH 5.5
Procedure: Add 0.5 ml of sterile water for injection to prepare a 10 mg/ml mother solution. […] Take 30 ul of the mother solution, add 570 ul of buffer solutions with different pH values of 5.5, and prepare a 0.5 mg/ml sample solution. After the sample was clarified, it was placed in a 25° C./37° C. water bath, and after 8 hours, the sample was sampled by HPLC and electrophoresis to detect the content of the sample relative to 0 hours, and the solution stability data of different compounds could be obtained.

CD8+ T cells = experiment: MTT cytotoxicity on CD8+ T cells; type: cell-based, C57BL/6 mouse; conditions: 48 hours, relative to C3
Procedure: • 1) Take the spleen of C57BL/6 mouse, place it on the culture dish with 40 uM screen (ice bath), add about 10 mL of normal saline, and gently grind with sterile syringe core. • 2) Transfer the ground cell suspension into a 50 mL centrifuge tube, add about 5 mL of normal saline to rinse the petri dish, and also transfer it into the 50 mL centrifuge tube, and combine the suspensions. • 3) Centrifuge the cell suspension at 1000 r/min for 10 min, discard the supernatant, and add an appropriate volume of normal saline to resuspend. Then add 3 times volume of ammonium chloride erythrocyte lysate, pipetting evenly. After lysing on ice for about 10 min, add 10 mL of normal saline to stop the lysing, and centrifuge at 1000 r/min for 5 min. • 4) After centrifugation, discard the supernatant, add 10 mL of physiological saline, pipette evenly, centrifuge at 1000 r/min for 5 min, and repeat the above operation once. Cells were then resuspended in 10% RMPI 1640 medium for subsequent culture or in 0.5% BSA for subsequent T cell sorting. […]
• A. Washing of CD3/CD28 magnetic beads: a. […] The cells were transferred to another tube to remove the beads as completely as possible and cultured in medium supplemented with […] (which could be increased according to the actual situation) and their status, proliferation and viability were monitored. […]

COc1cccc2c1C(=O)c1c(O)c3c(c(O)c1C2=O)C[C@@](O)(C(=O)CO)C[C@@H]3O[C@H]1C[C@H](NC(=O)[C@H](CC(C)C)NC(=O)[C@H](CC(N)=O)NC(=O)[C@H](C)NC(=O)[C@H](C)NC(=O)CCCCCN2C(=O)C=CC2=O)[C@H](O)[C@H](C)O1 [EMC-AANL-DOX] ({Hexanoyl(6-maleimido)}-AANL-{Doxorubicin(3'-N)})
solubility [1]: < 5000 µg/mL
efficacy combined with lenvatinib (FIG. 11) [2]: superior to that of each monotherapy
efficacy combined with PD-1 (FIG. 11) ([2]; PD-1 5 mg/kg twice weekly): superior to that of lenvatinib combined with PD-1
Solubility in water for injection [3]: Insolubility
Compound activation ratios (%) [4]: 42.3%
Compound activation ratios (%) [5]: 58.4%
Compound activation ratios (%) [6]: 49.4%
Compound activation ratios (%) [7]: 46.4%
Compound activation ratios (%) [8]: 37.3%
Compound activation ratios (%) [9]: 75.3%
Compound activation ratios (%) [10]: 46.4%
Stability data of the solution, 8 hr (content relative to 0 hours) [11]: 94.3%

COc1cccc2c1C(=O)c1c(O)c3c(c(O)c1C2=O)C[C@@](O)(C(=O)CO)C[C@@H]3O[C@H]1C[C@H](NC(=O)[C@H](CC(C)C)NC(=O)[C@H](CC(N)=O)NC(=O)[C@H](C)NC(=O)[C@H](C)NC(=O)CCOCCOCCNC(=O)CCN2C(=O)C=CC2=O)[C@H](O)[C@H](C)O1 [QHL-087-DOX]
cytotoxicity against CD8+ T cells (FIG. 5) (CD8+ T cells): less cytotoxicity against CD8+ T cells
